Results from ChEMBL document CHEMBL1136221, “Analysis of the critical structural determinant(s) of species-selective peroxisome proliferator-activated receptor alpha (PPAR alpha)-activation by phenylpropanoic acid-type PPAR alpha agonists” (Bioorg Med Chem Lett, 2003).
Numbering of substitutions follows the chain as printed.

How the values were obtained:
Assay type in all cases: cell-based
[1] = target: T1, Peroxisome proliferator-activated receptor alpha (Homo sapiens, UniProt Q07869); assay: Transcriptional activation activity on human Peroxisome proliferator activated receptor alpha expressed in CHO-K1 cells
T1 sequence (Q07869 whole entry): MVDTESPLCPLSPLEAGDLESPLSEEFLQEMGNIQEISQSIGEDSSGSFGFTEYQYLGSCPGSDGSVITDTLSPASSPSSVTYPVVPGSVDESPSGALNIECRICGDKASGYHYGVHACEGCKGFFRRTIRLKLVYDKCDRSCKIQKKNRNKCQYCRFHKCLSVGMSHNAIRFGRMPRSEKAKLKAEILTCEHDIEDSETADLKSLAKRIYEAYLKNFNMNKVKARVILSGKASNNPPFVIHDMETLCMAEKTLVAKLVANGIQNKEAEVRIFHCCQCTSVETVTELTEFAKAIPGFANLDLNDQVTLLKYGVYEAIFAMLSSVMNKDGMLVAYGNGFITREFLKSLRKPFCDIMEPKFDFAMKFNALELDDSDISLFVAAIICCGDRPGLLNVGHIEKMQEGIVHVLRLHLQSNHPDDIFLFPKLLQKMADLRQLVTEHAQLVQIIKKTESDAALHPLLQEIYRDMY

[2] = target: Peroxisome proliferator-activated receptor alpha (Homo sapiens, UniProt Q07869, T279M); assay: Transcriptional activation activity on human T279M-mutant Peroxisome proliferator activated receptor alpha expressed in CHO-K1 cells
Peroxisome proliferator-activated receptor alpha (Homo sapiens, UniProt Q07869, T279M), sequence (Q07869 whole entry T279M): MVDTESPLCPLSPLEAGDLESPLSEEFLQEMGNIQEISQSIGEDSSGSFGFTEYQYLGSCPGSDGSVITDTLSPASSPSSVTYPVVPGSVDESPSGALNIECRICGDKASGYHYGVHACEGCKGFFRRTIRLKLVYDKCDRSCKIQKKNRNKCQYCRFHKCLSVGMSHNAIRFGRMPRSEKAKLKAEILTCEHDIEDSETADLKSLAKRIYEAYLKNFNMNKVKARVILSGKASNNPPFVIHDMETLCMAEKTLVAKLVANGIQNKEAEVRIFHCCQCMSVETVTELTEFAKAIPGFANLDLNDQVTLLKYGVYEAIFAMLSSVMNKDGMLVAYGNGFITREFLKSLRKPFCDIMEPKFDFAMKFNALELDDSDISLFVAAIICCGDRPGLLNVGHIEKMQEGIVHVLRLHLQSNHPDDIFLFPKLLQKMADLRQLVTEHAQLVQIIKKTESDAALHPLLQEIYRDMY

[3] = target: Peroxisome proliferator-activated receptor alpha (Homo sapiens, UniProt Q07869, I272F); assay: Transcriptional activation activity on human I272F-mutant Peroxisome proliferator activated receptor alpha expressed in CHO-K1 cells
Peroxisome proliferator-activated receptor alpha (Homo sapiens, UniProt Q07869, I272F), sequence (Q07869 whole entry I272F, the tested form may be a part): as the sequence (Q07869 whole entry T279M) above, with I272F, M279T counted along it

[4] = test system: Peroxisome proliferator-activated receptor alpha (Homo sapiens), Q07869 [UNDEFINED MUTATION]; assay: Ratio of transcriptional activation of T279M mutant compared to wild type PPAR-GAL4 chimeric receptors in CHO-K1 cells
[5] = test system: Peroxisome proliferator-activated receptor alpha (Homo sapiens), Q07869 [UNDEFINED MUTATION]; assay: Ratio of transcriptional activation of I272F mutant compared to wild type PPAR-GAL4 chimeric receptors in CHO-K1 cells
[6] = test system: T2, Peroxisome proliferator-activated receptor alpha (Homo sapiens), Q07869 [I272F]; assay: Transcriptional activation activity on human I272F-mutant Peroxisome proliferator activated receptor alpha expressed in CHO-K1 cells at 10 uM
T2 sequence (whole entry): T1 sequence (Q07869 whole entry) with I272F

Row | EC50 [1] [µM] | EC50 [2] [µM] | EC50 [3] [µM] | Ratio [4] | Ratio [5] | inhibition [6] [%] | Compound
1 | 2.72 | 16.1 | 33.4 | 5.92 | 12.3 |  | CC[C@@H](Cc1ccc(OC)c(OCCc2ccc(C(F)(F)F)cc2)c1)C(=O)O
2 | 0.000615 | 0.014 | 0.667 | 2.28 | 108 |  | CC[C@@H](Cc1ccc(OC)c(C(=O)NCc2ccc(Oc3ccc(F)cc3)cc2)c1)C(=O)O
3 | 3.38 | 11.4 |  | 3.37 |  | 30 | CC[C@@H](Cc1ccc(OC)c(C(=O)NCc2ccccc2)c1)C(=O)O
4 | 0.0803 | 0.309 | 2.82 |  |  |  | CC[C@@H](Cc1ccc(OC)c(C(=O)NCc2ccc(C(F)(F)F)cc2)c1)C(=O)O
